Drawing on patent US7304174B2, “CaSR antagonist” (Japan Tobacco Inc., priority 2003, dated 2007), this text covers IC50 for 22 compounds.

The target in the experiment is T1, human calcium receptor (Homo sapiens, UniProt P41180).
T1 construct: expressed in transfected cells; host or cells: cell strain derived from rat adrenal, co-transformed with luciferase cDNA
T1 sequence (P41180 20-1078): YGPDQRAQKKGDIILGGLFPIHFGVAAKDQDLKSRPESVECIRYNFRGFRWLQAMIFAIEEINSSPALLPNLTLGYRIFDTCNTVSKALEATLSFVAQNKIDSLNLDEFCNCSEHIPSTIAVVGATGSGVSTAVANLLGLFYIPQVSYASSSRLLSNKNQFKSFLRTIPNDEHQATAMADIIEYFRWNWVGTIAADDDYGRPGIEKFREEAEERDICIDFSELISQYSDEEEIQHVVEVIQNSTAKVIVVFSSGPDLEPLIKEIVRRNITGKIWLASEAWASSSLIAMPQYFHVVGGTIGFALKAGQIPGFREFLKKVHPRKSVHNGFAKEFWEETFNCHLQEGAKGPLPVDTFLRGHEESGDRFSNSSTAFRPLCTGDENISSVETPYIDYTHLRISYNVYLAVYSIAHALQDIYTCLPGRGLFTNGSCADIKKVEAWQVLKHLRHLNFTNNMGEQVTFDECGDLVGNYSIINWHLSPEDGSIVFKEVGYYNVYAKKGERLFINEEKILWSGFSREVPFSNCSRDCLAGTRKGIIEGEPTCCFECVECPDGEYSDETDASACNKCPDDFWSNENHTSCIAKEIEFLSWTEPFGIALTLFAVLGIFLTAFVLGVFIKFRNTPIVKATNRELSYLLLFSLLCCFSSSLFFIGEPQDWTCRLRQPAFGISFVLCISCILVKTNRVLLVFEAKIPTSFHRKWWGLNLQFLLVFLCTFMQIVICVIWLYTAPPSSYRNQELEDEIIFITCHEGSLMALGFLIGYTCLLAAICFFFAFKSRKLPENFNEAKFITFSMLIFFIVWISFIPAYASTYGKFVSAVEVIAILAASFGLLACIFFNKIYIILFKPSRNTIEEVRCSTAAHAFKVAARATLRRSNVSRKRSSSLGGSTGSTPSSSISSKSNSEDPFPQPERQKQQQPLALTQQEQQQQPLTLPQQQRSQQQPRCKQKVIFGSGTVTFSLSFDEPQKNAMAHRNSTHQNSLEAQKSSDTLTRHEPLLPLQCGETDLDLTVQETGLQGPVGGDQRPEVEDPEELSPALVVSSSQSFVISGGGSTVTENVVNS
Nature of the experiment: Evaluation of antagonistic action on calcium receptor using reporter gene (luciferase). The experiment is classed as cell-based. Conditions: transformed rat adrenal derived cells, 5 mM calcium chloride, culture 4 hrs, luciferase activity; read-out: Reporter gene assay (IC50, concentration showing 50% inhibitory rate). How it is done:
Evaluation of Antagonistic Action on Calcium Receptor Using Reporter Gene
Luciferase cDNA and human calcium receptor cDNA were introduced into a cell strain derived from rat adrenal to transform the cells, and the transformed cells were cultured in a medium (80 μl, F12 medium containing 0.5% dialyzed horse serum and 0.25% dialyzed bovine fetal serum). A dimethyl sulfoxide solution containing a test compound at 0.1-10000 μM was diluted 100-fold with the medium and added to the test compound group at 10 μl per well (dimethyl sulfoxide final concentration 0.1%). In the same manner as in test compound group, dimethyl sulfoxide 100-fold diluted with medium was added to a control group and a blank group. Then, 50 mM calcium chloride-containing medium was added to every well except the blank group at 10 μl per well (final concentration 5 mM). A medium containing 50 mM calcium chloride was added to the control group at 10 μl per well, such that the final calcium concentration of the medium became 5 mM. A medium alone was added to the blank group. After culture for 4 hrs, luciferase substrate was added and the luciferase activity was measured with a photoluminometer. The inhibitory rate (%) was calculated from the obtained measured values according to the following formula.
Based on the results, the concentration (IC50) showing 50% inhibitory rate was determined. The results are shown in the aforementioned Tables 1 to 60.
(In a reporter assay the amount or activity of a reporter protein is the signal.)
Regarding “4-[2-[1-[(2R)-3-[[1-(3-fluoro-4-methylphenyl)-2-methylpropan-2-yl]amino]-2-hydroxypropoxy]ethyl]phenoxy]-3-methoxybenzoic acid [Example 2-2]”, the IC50 worked out at 21 nM.

Take `CC(OC[C@H](O)CNC(C)(C)Cc1ccc2ccccc2c1)c1ccccc1Cc1ccc(C(=O)O)cc1` (stereo partly shown) [2-14′]: the IC50 was 30 nM.

In the case of `CC(OC[C@H](O)CNC(C)(C)Cc1ccc2ccccc2c1)c1ccccc1OCc1cccc(C(=O)O)c1` (stereo partly shown) [2-21′], the IC50 amounted to 26 nM.

As to `CC(OC[C@H](O)CNC(C)(C)Cc1ccc2ccccc2c1)c1ccccc1OCc1ccc(C(=O)O)cc1` (stereo partly shown) [2-22′], the IC50 is 23 nM.

Take `Cc1cc(CC(C)(C)NC[C@@H](O)CO[C@H](C)c2ccccc2-c2ccc(C(=O)O)c(C)c2)ccc1Cl` [Example 1-4, 2′-[1-[(2R)-3-[[1-(4-chloro-3-methylphenyl)-2-methylpropan-2-yl]amino]-2-hydroxypropoxy]ethyl]-3-methylbiphenyl-4-carboxylic acid]: the IC50 was 14 nM.

In the case of `Cc1cc(-c2ccccc2[C@@H](C)OC[C@H](O)CNC(C)(C)Cc2ccc(C)c(F)c2F)ccc1C(=O)O` [Example 1-5, 2′-[1-[(2R)-3-[[1-(2,3-difluoro-4-methylphenyl)-2-methylpropan-2-yl]amino]-2-hydroxypropoxy]ethyl]-3-methylbiphenyl-4-carboxylic acid], the IC50 was determined as 3 nM.

Regarding `Cc1ccc(CC(C)(C)NC[C@@H](O)CO[C@H](C)c2ccccc2-c2ccc(C(=O)O)c(C)c2)c(F)c1` [Example 1-7, 2′-[1-[(2R)-3-[[1-(2-fluoro-4-methylphenyl)-2-methylpropan-2-yl]amino]-2-hydroxypropoxy]ethyl]-3-methylbiphenyl-4-carboxylic acid], the IC50 amounted to 15 nM.

Take `CCc1ccc(CC(C)(C)NC[C@@H](O)CO[C@H](C)c2ccccc2-c2ccc(C(=O)O)c(C)c2)cc1F` [Example 1-8, 2′-[1-[(2R)-3-[[1-(4-ethyl-3-fluorophenyl)-2-methylpropan-2-yl]amino]-2-hydroxypropoxy]ethyl]-3-methylbiphenyl-4-carboxylic acid]: the IC50 came to 15 nM.

On to `Cc1cc(C(=O)O)cc(-c2ccccc2[C@@H](C)OC[C@H](O)CNC(C)(C)Cc2ccc3ccccc3c2)c1` [Example 1-9, 3-methyl-2′-[1-[(2R)-3-[[1-(naphthalen-2-yl)-2-methylpropan-2-yl]amino]-2-hydroxypropoxy]ethyl]biphenyl-5-carboxylic acid], for which the IC50 turned out to be 16 nM.

With `COC(=O)c1cc(C(=O)OC)cc(-c2ccccc2[C@@H](C)OC[C@H](O)CNC(C)(C)Cc2ccc3ccccc3c2)c1` [Example 1-10, methyl 2′-[1-[(2R)-3-[[1-(naphthalen-2-yl)-2-methylpropan-2-yl]amino]-2-hydroxypropoxy]ethyl]biphenyl-3,5-dicarboxylate], the IC50 amounted to 29 nM.

Regarding `Cc1cc(-c2ccccc2[C@H](OC[C@H](O)CNC(C)(C)Cc2ccc3ccccc3c2)C2CC2)ccc1C(=O)O` [Example 1-11, 2′-[(cyclopropyl)[(2R)-3-[[1-(naphthalen-2-yl)-2-methylpropan-2-yl]amino]-2-hydroxypropoxy]methyl]-3-methylbiphenyl-4-carboxylic acid], the IC50 was 18 nM.

Regarding `Cc1cc(-c2ccccc2[C@@H](C)OC[C@H](O)CNC(C)(C)Cc2ccc3ccccc3c2)ccc1C(=O)O` [Example 1-12, 2′-[1-[(2R)-3-[[1-(naphthalen-2-yl)-2-methylpropan-2-yl]amino]-2-hydroxypropoxy]ethyl]-3-methylbiphenyl-4-carboxylic acid], the IC50 was 13 nM.

For `Cc1cc(-c2ccccc2[C@@H](C)OC[C@H](O)CNC(C)(C)Cc2ccc3ccccc3c2)ccc1C(=O)O` [Example 1-13, 2′-[1-[(2R)-3-[[1-(naphthalen-2-yl)-2-methylpropan-2-yl]amino]-2-hydroxypropoxy]ethyl]-3-methylbiphenyl-4-carboxylic acid], the IC50 turned out to be 15 nM.

Turning to `Cc1ccc(CC(C)(C)NC[C@@H](O)CO[C@@H](c2ccccc2-c2ccc(C(=O)O)c(C)c2)C2CC2)cc1F` [Example 1-14, 2′-[(cyclopropyl)[(2R)-3-[[1-(3-fluoro-4-methylphenyl)-2-methylpropan-2-yl]amino]-2-hydroxypropoxy]methyl]-3-methylbiphenyl-4-carboxylic acid], the IC50 amounted to 6 nM.

On to `Cc1ccc(CC(C)(C)NC[C@@H](O)CO[C@H](C)c2ccccc2-c2ccc(C(=O)O)c(C)c2)cc1F` [Example 1-15, 2′-[1-[(2R)-3-[[1-(3-fluoro-4-methylphenyl)-2-methylpropan-2-yl]amino]-2-hydroxypropoxy]ethyl]-3-methylbiphenyl-4-carboxylic acid], for which the IC50 worked out at 12 nM.

Turning to `Cc1ccc(CC(C)(C)NC[C@@H](O)CO[C@H](C)c2ccccc2-c2ccc(C(=O)O)c(C)c2)cc1F` [Example 1-16, 2′-[1-[(2R)-3-[[1-(3-fluoro-4-methylphenyl)-2-methylpropan-2-yl]amino]-2-hydroxypropoxy]ethyl]-3-methylbiphenyl-4-carboxylic acid], the IC50 is 11 nM.

On to `Cc1cc(C(=O)O)cc(-c2ccccc2[C@@H](C)OC[C@H](O)CNC(C)(C)Cc2ccc(C)c(F)c2)c1` [Example 1-17, 2′-[1-[(2R)-3-[[1-(3-fluoro-4-methylphenyl)-2-methylpropan-2-yl]amino]-2-hydroxypropoxy]ethyl]-3-methylbiphenyl-5-carboxylic acid], for which the IC50 turned out to be 15 nM.

As to `Cc1cc(-c2ccccc2C(OC[C@H](O)CNC(C)(C)Cc2ccc(Cl)cc2F)C2CC2)ccc1C(=O)O` (stereo partly drawn) [Example 1-18, 2′-[(cyclopropyl)[(2R)-3-[[1-(4-chloro-2-fluorophenyl)-2-methylpropan-2-yl]amino]-2-hydroxypropoxy]methyl]-3-methylbiphenyl-4-carboxylic acid], the IC50 is 16 nM.

With `Cc1cc(-c2ccccc2[C@H](OC[C@H](O)CNC(C)(C)Cc2ccc(Cl)c(F)c2)C2CC2)ccc1C(=O)O` [Example 1-19, 2′-[(cyclopropyl)[(2R)-3-[[1-(4-chloro-3-fluorophenyl)-2-methylpropan-2-yl]amino]-2-hydroxypropoxy]methyl]-3-methylbiphenyl-4-carboxylic acid], the IC50 is 5 nM.

In the case of `COc1ccc(CC(C)(C)NC[C@@H](O)CO[C@H](C)c2ccccc2-c2ccc(C(=O)O)c(C)c2)cc1F` [Example 1-20, 2′-[1-[(2R)-3-[[1-(3-fluoro-4-methoxyphenyl)-2-methylpropan-2-yl]amino]-2-hydroxypropoxy]ethyl]-3-methylbiphenyl-4-carboxylic acid], the IC50 turned out to be 40 nM.

In the case of `Cc1ccc(CC(C)(C)NC[C@@H](O)CO[C@H](C)c2ccccc2-c2ccc(C(=O)O)c(C)c2)cc1C` [Example 1-21, 3-methyl-2′-[1-[(2R)-3-[[1-(3,4-dimethylphenyl)-2-methylpropan-2-yl]amino]-2-hydroxypropoxy]ethyl]biphenyl-4-carboxylic acid], the IC50 came out at 13 nM.

As to `Cc1ccc(CC(C)(C)NC[C@@H](O)CO[C@H](C)c2ccccc2-c2ccc(C(=O)O)c(C)c2)cc1` [Example 1-22, 2′-[1-[(2R)-3-[[1-(4-methylphenyl)-2-methylpropan-2-yl]amino]-2-hydroxypropoxy]ethyl]-3-methylbiphenyl-4-carboxylic acid], the IC50 turned out to be 12 nM.
